Laboratory results taken from the supplement of paper PMC5908809.

Columns and labels:
[1] = system: KAI3 (IL-2 2.5 ng/mL); test: percent inhibition of viability; higher = more inhibition; settings: 72 h
[2] = system: normal primary NK cells, pool 1 (3 donors), resting (IL-2 0 ng/mL); test: as above; settings: 72 h
[3] = system: SNK-6 (IL-2 2.5 ng/mL); test: as above; settings: 72 h
[4] = system: IMC-1 (IL-2 20 ng/mL); test: as above; settings: 72 h
[5] = system: NK-YS (IL-2 2.5 ng/mL); test: as above; settings: 72 h
[6] = system: NKL (IL-2 2.5 ng/mL); test: as above; settings: 72 h
[7] = system: NK-92 (IL-2 2.5 ng/mL); test: as above; settings: 72 h
[8] = system: normal primary NK cells, pool 3 (3 donors) (IL-2 2.5 ng/mL); test: as above; settings: 72 h
[9] = system: YT (IL-2 2.5 ng/mL); test: as above; settings: 72 h
[10] = system: normal primary NK cells, pool 1 (3 donors) (IL-2 2.5 ng/mL); test: as above; settings: 72 h
[11] = system: DERL-7 (IL-2 2.5 ng/mL); test: as above; settings: 72 h
[12] = system: KHYG-1 (IL-2 2.5 ng/mL); test: as above; settings: 72 h
[13] = system: normal primary NK cells, pool 2 (3 donors) (IL-2 2.5 ng/mL); test: as above; settings: 72 h
[14] = system: normal NK cells expanded with K562-aAPC; test: as above; settings: 72 h, IL-2 2.5 ng/mL
Procedure: (§1)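 Drug sensitivity and resistance testing on K562-aAPC-expanded normal NK cells: 5 concentrations (10-fold steps over a 10,000-fold range), 72 h at 37 °C, viability by CellTiter-Glo normalised to DMSO and benzethonium chloride controls; DSS from the fitted curve.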

[15] = system: KAI3 (IL-2 2.5 ng/mL); test: drug sensitivity score (DSS) (DSS units); higher = more sensitive; extreme values may be limits of the assay; settings: 72 h
[16] = system: normal primary NK cells, pool 1 (3 donors), resting (IL-2 0 ng/mL); test: as above; settings: 72 h
[17] = system: SNK-6 (IL-2 2.5 ng/mL); test: as above; settings: 72 h
[18] = system: IMC-1 (IL-2 20 ng/mL); test: as above; settings: 72 h
[19] = system: NK-YS (IL-2 2.5 ng/mL); test: as above; settings: 72 h
[20] = system: NKL (IL-2 2.5 ng/mL); test: as above; settings: 72 h
[21] = system: NK-92 (IL-2 2.5 ng/mL); test: as above; settings: 72 h
[22] = system: normal primary NK cells, pool 3 (3 donors) (IL-2 2.5 ng/mL); test: as above; settings: 72 h
[23] = system: YT (IL-2 2.5 ng/mL); test: as above; settings: 72 h
[24] = system: normal primary NK cells, pool 1 (3 donors) (IL-2 2.5 ng/mL); test: as above; settings: 72 h
[25] = system: DERL-7 (IL-2 2.5 ng/mL); test: as above; settings: 72 h
[26] = system: KHYG-1 (IL-2 2.5 ng/mL); test: as above; settings: 72 h
[27] = system: normal primary NK cells, pool 2 (3 donors) (IL-2 2.5 ng/mL); test: as above; settings: 72 h
[28] = system: normal NK cells expanded with K562-aAPC; test: as above; settings: 72 h; IL-2 2.5 ng/mL
Procedure: as §1

COc1cccc2c1C(=O)c1c(O)c3c(c(O)c1C2=O)C[C@@](O)(C(C)=O)C[C@@H]3O[C@H]1C[C@H](N)[C@H](O)[C@H](C)O1 [Daunorubicin] (max concentration tested 1000 nM)
percent inhibition of viability [%]
Settings | 0.1 nM | 1 nM | 10 nM | 100 nM | 1000 nM
[1] | -5.78 | -13.2 | 19.7 | 61.9 | 106
[2] | -16.4 | -27.6 | 23.2 | 91.1 | 94
[3] | -12.6 | -10.6 | -5.61 | 97.8 | 94.5
[4] | -9.54 | -10.2 | 16.5 | 98.7 | 101
[5] | -2.31 | -8.67 | 23.9 | 77.1 | 106
[6] | -2.22 | 6.13 | 88.5 | 104 | 109
[7] | -16.2 | -14.1 | -9.07 | 89.9 | 109
[8] | -11.8 | -3.78 | 7.93 | 81.6 | 99.9
[9] | -3.13 | -9.89 | -7.78 | 93.8 | 110
[10] | -16.8 | -3.87 | 17.1 | 94.1 | 98.6
[11] | -3.3 | -4.68 | 21.2 | 92.8 | 101
[12] | 1.81 | -4.06 | -1.19 | 93.7 | 109
[13] | -11.1 | -1.9 | 13 | 92.7 | 94.4
[14] | -6.49 | -5.27 | 0.18 | 77.3 | 101

Settings | drug sensitivity score
[15] | 14.2
[16] | 20.5
[17] | 17.1
[18] | 20.7
[19] | 17.3
[20] | 29.4
[21] | 16
[22] | 16.1
[23] | 16.6
[24] | 19.6
[25] | 19.7
[26] | 16.9
[27] | 19.2
[28] | 14.4

NCC(=O)Nc1ccc(-n2nc(C(F)(F)F)cc2-c2ccc3c(ccc4ccccc43)c2)cc1 (max concentration tested 25000 nM)
percent inhibition of viability [%]
Settings | 2.5 nM | 25 nM | 250 nM | 2500 nM | 25000 nM
[1] | 13.1 | 14.3 | 13.5 | 14.9 | 104
[2] | -7.15 | -17.6 | -5.36 | -14.6 | 41.8
[3] | 2.2 | 12.3 | 18 | 28 | 101
[4] | 1.94 | 6.76 | 5.99 | 19.6 | 101
[5] | 2.51 | 6.9 | 13.3 | 53.1 | 101
[6] | 9.41 | 11.2 | 10.1 | 18.2 | 76.8
[7] | -3.92 | -7.91 | 18.1 | 14.3 | 106
[8] | -4.48 | -1.93 | 9.24 | 3.09 | 101
[9] | 8.95 | 9.77 | 11.9 | 10.6 | 104
[10] | 4.23 | -5.3 | 6.37 | -4.79 | 24.2
[11] | -6.63 | 0.68 | 3.86 | -3.39 | 34.2
[12] | 9.05 | 11.9 | 21.5 | 43.8 | 84.5
[13] | -4.35 | -2.12 | 12.8 | 2.37 | 102
[14] | 1.57 | 3.13 | 3.22 | 12.5 | 101

Settings | drug sensitivity score
[15] | 8.11
[16] | 1.49
[17] | 9.36
[18] | 8.71
[19] | 12.3
[20] | 6.99
[21] | 8.05
[22] | 6.06
[23] | 7.45
[24] | 0.67
[25] | 1.36
[26] | 11.9
[27] | 6.08
[28] | 7.63

FC(F)(F)c1ccc(/C=C/c2nc(COc3ccc(CCCCn4ccnn4)cc3)co2)cc1 [Mubritinib] (max concentration tested 1000 nM)
percent inhibition of viability [%]
Settings | 0.1 nM | 1 nM | 10 nM | 100 nM | 1000 nM
[1] | 3.33 | -9.68 | -0.43 | 26.5 | 45.4
[2] | 10 | 1.44 | 28.5 | 61 | 64.8
[3] | -13.7 | -12.2 | 4.91 | 4.95 | 7.75
[4] | -1.73 | -4.86 | 37.2 | 86.6 | 31.2
[5] | -3.84 | -4.99 | 8.6 | 64 | 81.2
[6] | -16.4 | -8.04 | 7.63 | 38.2 | 57.6
[7] | -8.31 | -12.6 | 7.62 | 30.8 | 42.3
[8] | -9.77 | -2.9 | 15.1 | 21.5 | 34
[9] | -2.71 | -3.53 | 24 | 44.2 | 39.6
[10] | -7.65 | 0.13 | 21.1 | 48.2 | 50.2
[11] | 1.75 | 0.44 | 5.74 | 24.8 | 27
[12] | -2.15 | -7.85 | 17 | 42.5 | 66.5
[13] | -5.29 | -7.28 | 16.6 | 27.6 | 34.2
[14] | -6.01 | -7.06 | -7.66 | 9.52 | 14.1

Settings | drug sensitivity score
[15] | 5.59
[16] | 14.7
[17] | 0
[18] | 20.6
[19] | 13
[20] | 8.04
[21] | 6.23
[22] | 4.94
[23] | 11
[24] | 11.5
[25] | 4.52
[26] | 9.82
[27] | 7.39
[28] | 0.75

Cc1cc(C(=O)NOCCO)c(Nc2ccc(I)cc2F)n(C)c1=O [AZD-8330] (max concentration tested 10000 nM)
percent inhibition of viability [%]
Settings | 1 nM | 10 nM | 100 nM | 1000 nM | 10000 nM
[1] | 6.6 | 16.3 | 20.9 | 25.5 | 21.5
[2] | -12.3 | -10.7 | -6.76 | 10.4 | 33.8
[3] | -15.8 | -23.2 | -25.2 | -18.2 | -8.48
[4] | -6.12 | -4.24 | -7.8 | -3.57 | 1.54
[5] | 1.92 | 6.63 | 7.16 | 17 | 13.5
[6] | 9.59 | 36 | 58.2 | 70.4 | 65
[7] | -20.4 | -31.8 | -23.9 | -11.1 | -34
[8] | -7.05 | -12 | -3.49 | 3.69 | 8.96
[9] | 1.8 | 1.88 | -1.55 | 5.74 | 3.13
[10] | 1.16 | 3.34 | 2.94 | 11.4 | 20.3
[11] | 10.5 | 19.5 | 39.8 | 44.6 | 49.1
[12] | 4.36 | 28.4 | 50.2 | 60.9 | 59.9
[13] | -6.21 | -3.9 | 6.25 | 1.91 | 6.61
[14] | 0.89 | -5.14 | 2.35 | 1.49 | 5.67

Settings | drug sensitivity score
[15] | 0
[16] | 3.07
[17] | 0
[18] | 0
[19] | 1.5
[20] | 24.7
[21] | 0
[22] | 0
[23] | 0
[24] | 1.33
[25] | 15.5
[26] | 20.8
[27] | 0
[28] | 0

O=C(Nc1ccncc1)C(=O)c1cn(Cc2ccc(Cl)cc2)c2ccccc12 [Indibulin] (max concentration tested 10000 nM)
percent inhibition of viability [%]
Settings | 1 nM | 10 nM | 100 nM | 1000 nM | 10000 nM
[1] | 3.69 | 14.7 | 33 | 55.2 | 49.6
[2] | -7.61 | -0.32 | 20.6 | 8.83 | 10.7
[3] | 23.1 | 63.2 | 78.4 | 84 | 80.9
[4] | -3.14 | 0.7 | 4.01 | 92.4 | 98.2
[5] | -6.38 | 5.31 | 41.8 | 72.1 | 62.7
[6] | -12.2 | -11.9 | 51.8 | 86.5 | 83.6
[7] | -6.37 | 25.8 | 53.4 | 90.8 | 88.7
[8] | -1.93 | -8.2 | 1.19 | 5.32 | 11.4
[9] | -4.48 | 2.55 | 34.7 | 90.4 | 92
[10] | -10.2 | -6.02 | -8.45 | -10.4 | -3.72
[11] | 0.04 | 6.67 | 4.75 | 46.8 | 89.2
[12] | -4.72 | 2.71 | 48.2 | 102 | 96
[13] | -0.63 | -6.55 | 0.37 | 1.94 | 2.69
[14] | 0.45 | -0.15 | 0.03 | 26.6 | 49.8

Settings | drug sensitivity score
[15] | 14.6
[16] | 0.77
[17] | 35
[18] | 17.3
[19] | 18.2
[20] | 21.9
[21] | 24.3
[22] | 0.07
[23] | 20.8
[24] | 0
[25] | 10.5
[26] | 24
[27] | 0
[28] | 5.97
